The target in one assay is T1, human V2 receptor (Homo sapiens, UniProt P30518).
T1 construct: expressed in transfected cells; host or cells: CHO K1 (ATCC) expressing firefly luciferase under a CRE-responsive promoter
The experiment in a line: Cellular in vitro assay for determining vasopressin receptor activity, V2 receptor cell line (CHO, CRE-luciferase). It is filed as cell-based. Particulars: CHO cell line transfected with human V2 receptor; [Arg8]-vasopressin at EC50 concentration, 3 hours; read-out: IC50 hV2.

A further assay has as its target T2, human V1a receptor (Homo sapiens, UniProt P37288).
T2 construct: expressed in transfected cells; host or cells: CHO K1 (ATCC), also stably transfected with a modified aequorin
Put plainly: Cellular in vitro assay for determining vasopressin receptor activity, V1a receptor cell line (CHO, aequorin luminescence). Type of assay: cell-based. The conditions noted are these: for IC50: CHO cell line transfected with human V1a receptor, [Arg]-vasopressin at EC50 concentration, read-out: IC50 hV1a; for ratio IC50 hV2/hV1a: selectivity ratio IC50 hV2 / IC50 hV1a. The gist of the method:
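Luminescence from reconstituted aequorin, reporting intracellular calcium release, was measured immediately after adding [Arg]-vasopressin at EC50 concentration to CHO K1 cells pretreated 10 minutes with graded compound concentrations. Inhibition gave IC50 values.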

One may read the IC50 as the midpoint of a concentration-inhibition curve.

T1 sequence (P30518 whole entry): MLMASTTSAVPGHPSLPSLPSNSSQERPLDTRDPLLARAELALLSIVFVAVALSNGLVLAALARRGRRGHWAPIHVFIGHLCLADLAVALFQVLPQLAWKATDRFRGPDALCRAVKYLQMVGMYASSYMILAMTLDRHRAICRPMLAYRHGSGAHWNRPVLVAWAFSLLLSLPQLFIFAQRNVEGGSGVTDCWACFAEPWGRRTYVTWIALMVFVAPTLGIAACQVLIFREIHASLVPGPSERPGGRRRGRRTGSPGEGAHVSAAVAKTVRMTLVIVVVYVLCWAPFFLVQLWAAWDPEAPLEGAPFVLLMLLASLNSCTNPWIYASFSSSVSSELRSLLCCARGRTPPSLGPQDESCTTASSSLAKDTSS
T2 sequence (P37288 whole entry): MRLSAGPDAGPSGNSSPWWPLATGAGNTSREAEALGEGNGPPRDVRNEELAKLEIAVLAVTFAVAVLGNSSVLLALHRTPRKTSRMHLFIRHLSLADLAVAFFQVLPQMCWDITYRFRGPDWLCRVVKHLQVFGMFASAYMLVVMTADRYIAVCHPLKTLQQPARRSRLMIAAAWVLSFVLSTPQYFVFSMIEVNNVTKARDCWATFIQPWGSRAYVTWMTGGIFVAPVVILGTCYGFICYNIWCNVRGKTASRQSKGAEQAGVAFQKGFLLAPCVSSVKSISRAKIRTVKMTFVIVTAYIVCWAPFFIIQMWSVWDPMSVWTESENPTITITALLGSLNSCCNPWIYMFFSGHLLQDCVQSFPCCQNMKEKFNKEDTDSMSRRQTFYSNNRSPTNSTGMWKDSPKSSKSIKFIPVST

Take `COCC(=O)Nc1cccnc1-n1cnc(Cn2nc(-c3ccc(Cl)cc3)n(C[C@H](O)C(F)(F)F)c2=O)n1` [Example 40, N-{2-[3-({3-(4-Chlorophenyl)-5-oxo-4-[(2S)-3,3,3-trifluoro-2-hydroxypropyl]-4,5-dihydro-1H-1,2,4-triazol-1-yl}methyl)-1H-1,2,4-triazol-1-yl]pyridin-3-yl}-2-methoxyacetamide]: the IC50 on human V2 receptor came out at 350 nM. On human V1a receptor, the IC50 stood at 25.5 nM and the “ratio IC50 hV2/hV1a” value was 13.7.
The corresponding values for `O=C(Nc1cccnc1-n1cnc(Cn2nc(-c3ccc(Cl)cc3)n(C[C@H](O)C(F)(F)F)c2=O)n1)C1CC1` [Example 44, N-{2-[3-({3-(4-Chlorophenyl)-5-oxo-4-[(2S)-3,3,3-trifluoro-2-hydroxypropyl]-4,5-dihydro-1H-1,2,4-triazol-1-yl}methyl)-1H-1,2,4-triazol-1-yl]pyridin-3-yl}cyclopropanecarboxamide] are 360 nM, 4.25 nM and 84.7.
On the same counts, the results for `O=C(CC1CC1)Nc1cccnc1-n1cnc(Cn2nc(-c3ccc(Cl)cc3)n(C[C@H](O)C(F)(F)F)c2=O)n1` [Example 46, N-{2-[3-({3-(4-Chlorophenyl)-5-oxo-4-[(2S)-3,3,3-trifluoro-2-hydroxypropyl]-4,5-dihydro-1H-1,2,4-triazol-1-yl}methyl)-1H-1,2,4-triazol-1-yl]pyridin-3-yl}-2-cyclopropylacetamide] are 1570 nM, 32 nM and 49.0.
On the same counts, the results for `O=C(Nc1cccnc1-n1cnc(Cn2nc(-c3ccc(Cl)cc3)n(C[C@H](O)C(F)(F)F)c2=O)n1)C1(C(F)(F)F)CC1` [Example 47, N-{2-[3-({3-(4-Chlorophenyl)-5-oxo-4-[(2S)-3,3,3-trifluoro-2-hydroxypropyl]-4,5-dihydro-1H-1,2,4-triazol-1-yl}methyl)-1H-1,2,4-triazol-1-yl]pyridin-3-yl}-1-(trifluoromethyl)cyclopropanecarboxamide] are 283 nM, 7 nM and 40.5.
As for `O=C(Nc1cccnc1-n1cnc(Cn2nc(-c3ccc(Cl)cc3)n(C[C@H](O)C(F)(F)F)c2=O)n1)C1CC(F)(F)C1` [Example 48, N-{2-[3-({3-(4-Chlorophenyl)-5-oxo-4-[(2S)-3,3,3-trifluoro-2-hydroxypropyl]-4,5-dihydro-1H-1,2,4-triazol-1-yl}methyl)-1H-1,2,4-triazol-1-yl]pyridin-3-yl}-3,3-difluorocyclobutanecarboxamide], the IC50 on human V2 receptor stood at 557 nM. Moreover, on human V1a receptor, the half-inhibitory concentration (IC50) stood at 7.05 nM and the “ratio IC50 hV2/hV1a” value amounted to 79.0.
Consider `CS(=O)(=O)CC(=O)Nc1cccnc1-n1cnc(Cn2nc(-c3ccc(Cl)cc3)n(C[C@H](O)C(F)(F)F)c2=O)n1` [Example 49, N-{2-[3-({3-(4-Chlorophenyl)-5-oxo-4-[(2S)-3,3,3-trifluoro-2-hydroxypropyl]-4,5-dihydro-1H-1,2,4-triazol-1-yl}methyl)-1H-1,2,4-triazol-1-yl]pyridin-3-yl}-2-(methylsulfonyl)acetamide], for which the concentration for half-maximal inhibition (IC50) on human V2 receptor is 1100 nM. For the same compound, at human V1a receptor, the half-maximal inhibitory concentration (IC50) came to 4.8 nM and the “ratio IC50 hV2/hV1a” value was found to be 230.2.
On the same counts, the results for `CS(=O)(=O)NCC(=O)Nc1cccnc1-n1cnc(Cn2nc(-c3ccc(Cl)cc3)n(C[C@H](O)C(F)(F)F)c2=O)n1` [Example 53, N-{2-[3-({3-(4-Chlorophenyl)-5-oxo-4-[(2S)-3,3,3-trifluoro-2-hydroxypropyl]-4,5-dihydro-1H-1,2,4-triazol-1-yl}methyl)-1H-1,2,4-triazol-1-yl]pyridin-3-yl}-N^2-(methylsulfonyl)glycinamide] are 2250 nM, 31.5 nM and 71.4.
The corresponding values for `O=C(Nc1cccnc1-n1cnc(Cn2nc(-c3ccc(Cl)cc3)n(C[C@H](O)C(F)(F)F)c2=O)n1)C1CC1F` (stereo partly drawn) [Example 54, N-{2-[3-({3-(4-Chlorophenyl)-5-oxo-4-[(2S)-3,3,3-trifluoro-2-hydroxypropyl]-4,5-dihydro-1H-1,2,4-triazol-1-yl}methyl)-1H-1,2,4-triazol-1-yl]pyridin-3-yl}-2-fluorocyclopropanecarboxamide] are 407 nM, 4.5 nM and 90.4.
The corresponding values for `O=C(Nc1cccnc1-n1cnc(Cn2nc(-c3ccc(Cl)cc3)n(C[C@H](O)C(F)(F)F)c2=O)n1)C1(F)CC1` [Example 57, N-{2-[3-({3-(4-Chlorophenyl)-5-oxo-4-[(2S)-3,3,3-trifluoro-2-hydroxypropyl]-4,5-dihydro-1H-1,2,4-triazol-1-yl}methyl)-1H-1,2,4-triazol-1-yl]pyridin-3-yl}-1-fluorocyclopropanecarboxamide] are 503 nM, 13 nM and 38.7.
For the compound `O=C(Nc1cccnc1-n1cnc(Cn2nc(-c3ccc(Cl)cc3)n(C[C@H](O)C(F)(F)F)c2=O)n1)C1CS(=O)(=O)C1` [Example 58, N-{2-[3-({3-(4-Chlorophenyl)-5-oxo-4-[(2S)-3,3,3-trifluoro-2-hydroxypropyl]-4,5-dihydro-1H-1,2,4-triazol-1-yl}methyl)-1H-1,2,4-triazol-1-yl]pyridin-3-yl}thietane-3-carboxamide 1,1-dioxide], at human V2 receptor, the IC50 was 1140 nM. For the same compound, on human V1a receptor, the half-inhibitory concentration (IC50) amounted to 19.5 nM and the “ratio IC50 hV2/hV1a” value is on record as 58.3.
The corresponding values for `O=C(Nc1cccnc1-n1cnc(Cn2nc(-c3ccc(Cl)cc3)n(C[C@H](O)C(F)(F)F)c2=O)n1)OCC(F)(F)F` [Example 62, 2,2,2-trifluoroethyl {2-[3-({3-(4-chlorophenyl)-5-oxo-4-[(2S)-3,3,3-trifluoro-2-hydroxypropyl]-4,5-dihydro-1H-1,2,4-triazol-1-yl}methyl)-1H-1,2,4-triazol-1-yl]pyridin-3-yl}carbamate] are 957 nM, 19.5 nM and 49.1.
On the same counts, the results for `O=C(NCC(F)(F)F)Nc1cccnc1-n1cnc(Cn2nc(-c3ccc(Cl)cc3)n(C[C@H](O)C(F)(F)F)c2=O)n1` [Example 63, 1-{2-[3-({3-(4-Chlorophenyl)-5-oxo-4-[(2S)-3,3,3-trifluoro-2-hydroxypropyl]-4,5-dihydro-1H-1,2,4-triazol-1-yl}methyl)-1H-1,2,4-triazol-1-yl]pyridin-3-yl}-3-(2,2,2-trifluoroethyl)urea] are 1150 nM, 3.15 nM and 366.1.
The corresponding values for `O=c1n(Cc2ncn(-c3cccnc3N3CCOCC3)n2)nc(-c2ccc(Cl)cc2)n1C[C@H](O)C(F)(F)F` [Example 64, 5-(4-Chlorophenyl)-2-({1-[2-(morpholin-4-yl)pyridin-3-yl]-1H-1,2,4-triazol-3-yl}methyl)-4-[(2S)-3,3,3-trifluoro-2-hydroxypropyl]-2,4-dihydro-3H-1,2,4-triazol-3-one] are 535 nM, 16 nM and 33.4.
On to `CC(C)(N)CNc1ncccc1-n1cnc(Cn2nc(-c3ccc(Cl)cc3)n(C[C@H](O)C(F)(F)F)c2=O)n1` [Example 65, 2-[(1-{2-[(2-Amino-2-methylpropyl)amino]pyridin-3-yl}-1H-1,2,4-triazol-3-yl)methyl]-5-(4-chlorophenyl)-4-[(2S)-3,3,3-trifluoro-2-hydroxypropyl]-2,4-dihydro-3H-1,2,4-triazol-3-one], for which the IC50 turned out to be 380 nM on human V2 receptor and 190 nM at human V1a receptor. Also, the “ratio IC50 hV2/hV1a” value at human V1a receptor was determined as 2.0.
In the case of `NC(=O)[C@H]1CCCN1c1ncccc1-n1cnc(Cn2nc(-c3ccc(Cl)cc3)n(C[C@H](O)C(F)(F)F)c2=O)n1` [Example 66, 1-{3-[3-({3-(4-Chlorophenyl)-5-oxo-4-[(2S)-3,3,3-trifluoro-2-hydroxypropyl]-4,5-dihydro-1H-1,2,4-triazol-1-yl}methyl)-1H-1,2,4-triazol-1-yl]pyridin-2-yl}-D-prolinamide], the concentration for half-maximal inhibition (IC50) on human V2 receptor is 363 nM; on human V1a receptor, 43.5 nM. Besides, the “ratio IC50 hV2/hV1a” value on human V1a receptor was determined as 8.4.
With `CC(C)(O)CNc1ncccc1-n1cnc(Cn2nc(-c3ccc(Cl)cc3)n(C[C@H](O)C(F)(F)F)c2=O)n1` [Example 67, 5-(4-Chlorophenyl)-2-[(1-{2-[(2-hydroxy-2-methylpropyl)amino]pyridin-3-yl}-1H-1,2,4-triazol-3-yl)methyl]-4-[(2S)-3,3,3-trifluoro-2-hydroxypropyl]-2,4-dihydro-3H-1,2,4-triazol-3-one], the IC50 on human V2 receptor worked out at 157 nM; at human V1a receptor it was 76.5 nM. The “ratio IC50 hV2/hV1a” value on human V1a receptor is given as 2.0.
Consider `NC(=O)[C@@H]1CCCN1c1ncccc1-n1cnc(Cn2nc(-c3ccc(Cl)cc3)n(C[C@H](O)C(F)(F)F)c2=O)n1` [Example 68, 1-{3-[3-({3-(4-Chlorophenyl)-5-oxo-4-[(2S)-3,3,3-trifluoro-2-hydroxypropyl]-4,5-dihydro-1H-1,2,4-triazol-1-yl}methyl)-1H-1,2,4-triazol-1-yl]pyridin-2-yl}-L-prolinamide], for which the half-inhibitory concentration (IC50) on human V2 receptor came out at 437 nM. Also, on human V1a receptor, the 50% inhibitory concentration (IC50) turned out to be 63.5 nM and the “ratio IC50 hV2/hV1a” value amounted to 6.9.
The corresponding values for `O=c1n(Cc2ncn(-c3cccnc3NCCC(F)(F)F)n2)nc(-c2ccc(Cl)cc2)n1C[C@H](O)C(F)(F)F` [Example 69, 5-(4-Chlorophenyl)-4-[(2S)-3,3,3-trifluoro-2-hydroxypropyl]-2-[(1-{2-[(3,3,3-trifluoropropyl)amino]pyridin-3-yl}-1H-1,2,4-triazol-3-yl)methyl]-2,4-dihydro-3H-1,2,4-triazol-3-one] are 320 nM, 235 nM and 1.4.

(Values after US11173151B2, “Substituted triazole derivatives and uses thereof” (BAYER AKTIENGESELLSCHAFT, priority 2017, dated 2021).)
